Measured values reported in US20240084272A1, “CYTOCHROME P450 MONOOXYGENASES AND USES THEREOF” (THE UNIVERSITY OF BRITISH COLUMBIA, priority 2020, published 2024).

What was measured:
Format in all cases: cell-based, Camptotheca acuminata
Ca32229/CPT11H = assay: In vivo yeast biotransformation / substrate scope assay with CPT 11-hydroxylase; conditions: for Conversion rate (%): substrate converted to hydroxylated product, yeast in vivo assay, 1 L culture, calculated based on LCMS analysis; for acceptance as substrate / conversion: substrate scope, Example 4
Source text: (§1) For heterologous expression of Flag-tagged CYP450s in yeast (Saccharomyces cerevisiae), the full-length coding region of each CYP450 candidate was cloned between SpeI and NcoI restriction sites of MCS1 of the dual plasmid pESC-Leu2d with a cytochrome P450 reductase (CPR) in MCS2 (Dang et al 2018, Nature Chemical Biology 14, 760-763; Rot al 2008, BMC biotechnology 8, 83) yielding pESC-Leu2d::CYP/CPR using In-Fusion cloning system (Takara Clontech). The resulted pESC-Leu2d::CYP/CPR was transformed to the protease-deficient yeast strain YPL 154C:Pep4KO, and yeast harbouring pESC-Leu2d::CPR was used as the negative control. To optimize HCPT production, Δerg6 Δtop1 yeast double mutant strain SMY75-1.4A43 was used, which was previously generated to allow better penetration of, and improved resistance to, topoisomerase I inhibitors such as CPT. The conditions for yeast culture, microsome preparation, and immunoblot analysis are further described below.
(§2) For screening in vivo CPT oxidation activities, 10 μM CPT was fed to 100-μL, cultures of YPLC 154C:Pep4KO yeast transformed with the vector for 48 h. The culture volume can be scaled up to 2 L with the camptothecin concentration up to 50 μM to produce sufficient products for structural characterization and/or semi-synthesis of camptothecin derivatives. Standard in vitro assays were performed at 30 C for 1 hour in 100 μL of 100 mM HEPES-NaOH (pH 7.5) containing […] of total microsomal proteins, 50 μM substrate (FIGS. 6) and 250 μM NADPH on a gyratory shaker with agitation (750 rpm). Reactions were stopped by adding 800 μL methanol. The reaction mixture was extracted twice with methanol to precipitate and remove proteins. The supernatant was subjected to LC-MS/MS analysis
(§3) For routine yeast culture, the transgenic yeast strain was inoculated in 2 mL of synthetic complete (SC) medium lacking leucine (SC-Leu) containing 2% (w/v) glucose and cultured overnight at 30 °C and 250 rpm. The culture was subsequently diluted 100-fold to an OD600 of 0.05 in SC-Leu supplemented with 2% (w/v) glucose and cultured for 16 hr. Yeast was then harvested and sub-cultured for 24 hr in YPA medium containing 2% (w/v) galactose to induce the production of recombinant CYP450s. Yeast cells were harvested by centrifugation and lysed for 2 min using a micro-bead beater (VWR) and 500-μm diameter glass beads in TES (0.6 M sorbitol in TE) buffer. The resulting lysate was subsequently centrifuged at 10,000 g for 15 min at 4 C. The supernatant was then transferred to a new tube and centrifuged at 40,000 g for 60 min at 4 C. Finally, the pellet containing microsomes was resuspended with TEG buffer (20% (v/v) glycerol in TE). Expression of Ca32229 and Ca32236 was confirmed by immunoblot analysis of microsomal fractions prepared from S. cerevisiae cultures harbouring the pESC-Leu2d::CPR/Ca32229 and pESC-Leu2d::CPR/Ca32236 vectors using α-FLAG M2 antibodies (ThermoFisher Scientific) detectable with SuperSignal West Pico Chemiluminescent Substrate (ThermoFisher Scientific) to probe epitope-tagged recombinant proteins (FIG. 6).
(§4) Enzyme assays were analyzed by ultra-performance liquid chromatography (UPLC) on a Xevo TQ-S Cronos Triple Quadrupole Mass Spectrometry (Waters). For all studies, chromatography was performed on an XBridge BEH XP (10×2.1 mm, 1.7 μm) column at a flow rate of 0.6 mL.min−1. The column was equilibrated in solvent A (0.1% formic acid) and the following elution conditions were used: 0 min, 5% B (100% acetonitrile); from 0 to 3.5 min, 35% B; from 3.5 min to 3.75 min, 100% B; 3.75 min to 4.75, 100% B; 4.75 to 6 min, 5% B to re-equilibrate the column. Data were analyzed with MassLynx and TargetLynx (Waters).
(§5) A calibration curve using camptothecin from 0-50 nM was made for quantification. Peaks areas of LC-MS chromatograms were calculated using MassLynx and TargetLynx from Waters and normalized. […]

[1] = tested on: camptothecin hydroxylases (CPTHs), Ca32236 (CPT 10-hydroxylase) and Ca32229 (CPT 11-hydroxylase); assay: In vivo conversion in yeast expressing CPT hydroxylases (enzyme not distinguished); conditions: for acceptance as substrate (substrate specificity, FIG. 9): Ca32236 and Ca32229, different conversion rates; for conversion rate to hydroxylated product, scale-up: 50 μM substrate, after 48-hr inoculation, LCMS
Source text: as §1, §2
A calibration curve using camptothecin from 0-50 nM was made for quantification. Peaks areas of LC-MS chromatograms were calculated using MassLynx and TargetLynx from Waters and normalized. The amount of substrate consumption, product formation, conversion, and total product yield was quantified using corresponding calibration curves.
To generate sufficient amounts of HCPTs (10 and 11HCPT) and 7-ethyl-HCPT (7-ethyl-10 and 11HCPT) for the synthesis of topotecan, irinotecan and other compounds, enzymatic reactions was scaled up. The transgenic yeast strain was inoculated in 2 mL of synthetic complete medium lacking leucine (SC-Leu) containing 2% (w/v) glucose and cultured overnight at 30° C. and 275 rpm. The culture was subsequently diluted to an OD600 of 0.05 in SC-Leu supplemented with 2% (w/v) glucose and cultured for 16 hr. The yeast was then harvested and sub-cultured for 48 hr in YPA medium containing 2% (w/v) galactose, and 10% glycerol to induce the production of recombinant CYP450s. CPT or 7-ethyl-CPT substrate was fed directly into the culture to reach a final concentration of 50 μM as soon as the yeast was switched from SC-Leu to YPA medium. After 48-hr inoculation, a conversion rate of approximately 70% from CPT or 7-ethyl-CPT to its hydroxylated product was obtained and confirmed by LCMS analysis. The supernatant was collected by centrifugation at 4000 rpm, for 5 minutes. HCPT and 7-ethyl-HCPT were extracted out of reaction matrix by liquid-liquid extraction with ethyl acetate and chloroform, respectively. The solvent was removed by using a rotary evaporator to obtain crude HCPT and 7-ethyl-HCPT substrates for chemical synthesis to topotecan and irinotecan. HCPT and 7-ethyl-HCPT were purified by semi-preparative HPLC prior to the synthesis of derivatives.
A key advantage of the cytochrome P450 monooxygenase enzymes lies in the opportunity to functionalize the inert C—H bond and to further diversify the products to obtain valuable CPT-based scaffolds. […] First, the enzymatic conversion of CPT to HCPTs in yeast expressing CPT hydroxylases was optimized. The initial in vivo conversion rate maximized at 10% (FIG. 2), possibly because CPT is insoluble and the native yeast topoisomerase I is sensitive to CPT. […]

Ca32236/CPT10H = assay: In vivo yeast biotransformation / substrate scope assay with CPT 10-hydroxylase; conditions: for Conversion rate (%): substrate converted to hydroxylated product, yeast in vivo assay, 1 L culture, calculated based on LCMS analysis
Source text: as §1, §2, §3, §4, §5

In the case of `CCC1(O)C(=O)OCc2c1cc1n(c2=O)Cc2cc3cc(O)ccc3nc2-1` (stereo not drawn) [10-HydroxyCPT, 10-hydroxycamptothecin], the “Conversion rate (%)” value (Ca32229/CPT11H) was 11%, the acceptance as substrate (Ca32229/CPT11H) was “accepted” and the “conversion” value (Ca32229/CPT11H) was 7%. The “acceptance as substrate (substrate specificity, FIG. 9)” value [1] was “accepted as substrates”.
With `CCc1c2c(nc3ccccc13)-c1cc3c(c(=O)n1C2)COC(=O)[C@]3(O)CC` [Compound 7-EthylCPT, 7-ethylcamptothecin] the “Conversion rate (%)” value (Ca32229/CPT11H) was 32%, the acceptance as substrate (Ca32229/CPT11H) was “accepted” and the “Conversion rate (%)” value (Ca32236/CPT10H) was 8%. The acceptance as substrate (Ca32236/CPT10H; substrate scope, Example 4) was “accepted”, the “conversion rate to hydroxylated product, scale-up” value [1] was “approximately 70%” and the “acceptance as substrate (substrate specificity, FIG. 9)” value [1] was “accepted as substrates”.
`CCC1(O)C(=O)OCc2c1cc1n(c2=O)Cc2cc3ccc(O)cc3nc2-1` (stereo not drawn) [Compound 11HCPT, 11-hydroxycamptothecin] was tested, and the acceptance as substrate (Ca32236/CPT10H; substrate scope, Example 4) was “not accepted”.
With `CC[C@@]1(O)C(=O)OCc2c1cc1n(c2=O)Cc2cc3c(N)cccc3nc2-1` [Compound 9-AminoCPT, 9-amino-camptothecin] the “Conversion rate (%)” value (Ca32229/CPT11H) was 9%, the “conversion” value (Ca32229/CPT11H) was 9% and the “Conversion rate (%)” value (Ca32236/CPT10H) was 9%. The “conversion rate” value (Ca32236/CPT10H; substrate scope, Example 4) was 9% and the “acceptance as substrate (substrate specificity, FIG. 9)” value [1] was “accepted as substrates”.
evodiamine was tested, and the “acceptance as substrate (substrate specificity, FIG. 9)” value [1] was “accepted as substrates”.
For `CC[C@@]1(O)C(=O)OCc2c1cc1n(c2=O)Cc2cc3ccccc3nc2-1` [CPT, camptothecin], the “Conversion rate (%)” value (Ca32229/CPT11H) was 62%, the “Conversion rate (%)” value (Ca32236/CPT10H) was 67% and the “conversion rate to hydroxylated product, scale-up” value [1] was “approximately 70%”. The “initial in vivo conversion rate” value ([1]; CPT to HCPTs, before optimization) was ≤ 10%, the “acceptance as substrate (substrate specificity, FIG. 9)” value [1] was “accepted as substrates” and the “conversion in SMY75-1.4A yeast strain” value ([1]; SMY75-1.4A (Δerg6 Δtop1) yeast strain) was “up to 67%”. The “yield (conversion) after growth optimization” value ([1]; transgenic yeast in YPA medium with 2% galactose and 10% glycerol for 48 hrs) was “up to 40%”.
